Experimental data as given in patent publication US7759362B2, “Quinolonecarboxylic acid compounds, preparation methods and pharmaceutical uses thereof” (Institut of Medicinal Biotechnology Chinese Academy of …, priority 2004, dated 2010).
≈ marks a conversion by molar mass, not a printed value.

Legend:
S. pneumoniae = details: compared with gatifloxacin; cited from earlier work
E. coli 26 = test: MIC, two-fold plate dilution method; assay type: cell-based; details: E. coli 26, Gram-negative; Muener-Hinton medium
Text: (§1) . The pharmaceutically acceptable salts or hydrates thereof have the same antibacterial activity.
(§2) Two-fold plate dilution method is used for determination of activity, with Muener-Hinton medium (DIFCO) as the culture medium and clinically isolated pathogenic strain, quality control strain and standard strain (provided by National Institute for the Control of Pharmaceutical and Biological Products) as test strains.

E. coli ATTC 25922 = test: MIC, two-fold plate dilution method; assay type: cell-based; details: E. coli ATTC 25922, Gram-negative; Muener-Hinton medium
Text: as §1, §2

Enterococcus 755 = test: MIC, two-fold plate dilution method; assay type: cell-based; details: Enterococcus 755, Gram-positive; Muener-Hinton medium
Text: as §1, §2

K. pneumoniae 14 = test: MIC, two-fold plate dilution method; assay type: cell-based; details: K. pneumoniae 14, Gram-negative; Muener-Hinton medium
Text: as §1, §2

K. pneumoniae 7 = test: MIC, two-fold plate dilution method; assay type: cell-based; details: K. pneumoniae 7, Gram-negative; Muener-Hinton medium
Text: as §1, §2

P. aeruginosa 17 = test: MIC, two-fold plate dilution method; assay type: cell-based; details: P. aeruginosa 17, Gram-negative; Muener-Hinton medium
Text: as §1, §2

S. epidermidis 26069 = test: MIC, two-fold plate dilution method; assay type: cell-based; details: S. epidermidis 26069, Gram-positive; Muener-Hinton medium
Text: as §1, §2

S. pneumoniae 70 = test: MIC, two-fold plate dilution method; assay type: cell-based; details: S. pneumoniae 70, Gram-positive; Muener-Hinton medium
Text: as §1, §2

S. pneumoniae 98 = test: MIC, two-fold plate dilution method; assay type: cell-based; details: S. pneumoniae 98, Gram-positive; Muener-Hinton medium
Text: as §1, §2

S. pyogenes 26 = test: MIC, two-fold plate dilution method; assay type: cell-based; details: S. pyogenes 26, Gram-positive; Muener-Hinton medium
Text: as §1, §2

S. aureus ATTC 25923 = test: MIC, two-fold plate dilution method; assay type: cell-based; details: S. aureus ATTC 25923, Gram-positive; Muener-Hinton medium
Text: as §2

[1] = Acute oral toxicity in mice; details: mouse, in vivo, male mice, deaths after 7 days, Bliss program
Procedure: Toxicity experiments are carried out on the compounds prepared in embodiment 11, 13 and 15 to determine the acute oral toxicity of the present compounds. Solutions of the three compounds in different concentrations are administered to male mice at a dosage of 0.1 mL/10 g body weight, then the number of dead mice after 7 days is recorded, and lethal dose 50% (LD50) is calculated for each compound by Bliss program.

SMILES	in vitro activity against S. pneumoniae (in words) (S. pneumoniae)	MIC (E. coli 26) [µg/mL]	MIC (E. coli ATTC 25922) [µg/mL]	MIC (Enterococcus 755) [µg/mL]	MIC (K. pneumoniae 14) [µg/mL]	MIC (K. pneumoniae 7)	MIC (P. aeruginosa 17) [µg/mL]	MIC (S. epidermidis 26069) [µg/mL]	MIC (S. pneumoniae 70) [µg/mL]	MIC (S. pneumoniae 98) [µg/mL]	MIC (S. pyogenes 26) [µg/mL]	MIC (S. aureus ATTC 25923) [µg/mL]	LD50 at 7 days [1] [mg/kg]
C[C@H]1NCc2cc(-c3ccc4c(=O)c(C(=O)O)cn(C5CC5)c4c3OC(F)F)ccc21 [Embodiment T-3811]	enhanced in vitro activity against S. pneumoniae, even superior to gatifloxacin												
Cl.Nc1c(F)c(N2C[C@@H]3CCCN[C@@H]3C2)c(OC(F)F)c2c1c(=O)c(C(=O)O)cn2C1CC1 [Embodiment 17, 5-amino-1-cyclopropyl-8-difluoromethoxyl-7-[(1S,6S)-2,8-diazabicyclo[4,3,0]nonane-8-yl]-6-fluoro-1,4-dihydro-4-oxoquinoline-3-carboxylic acid hydrochloride]		0.015	0.051	0.015	0.015	0.015 µg/mL	0.25	0.25	0.015	0.015	0.25	0.03	> 4000
Cl.O=C(O)c1cn(C2CC2)c2c(OC(F)F)c(N3C[C@@H]4CCCN[C@@H]4C3)c(F)cc2c1=O [Embodiment 13, 1-cyclopropyl-8-difluoromethoxyl-7-[(1S,6S)-2,8-diazabicyclo[4,3,0]nonane-8-yl]-6-fluoro-1,4-dihydro-4-oxoquinoline-3-carboxylic acid hydrochloride]		0.015	0.015	0.25	0.015	0.015 µg/mL	0.25	0.25	0.125	0.015	0.25	0.03	> 4000
Cl.O=C(O)c1cn(C2CC2)c2c(OC(F)F)c(N3C[C@@H]4CCCN[C@@H]4C3)c(F)cc2c1=O (relative stereo) [Embodiment 15, 1-Cyclopropyl-8-difluoromethoxyl-7-[cis-2,8-diazabicyclo[4,3,0]nonane-8-yl]-6-fluoro-1,4-dihydro-4-oxoquinoline-3-carboxylic acid hydrochloride]		0.03	0.25	0.25	0.03	0.03 µg/mL	0.5	0.5	0.06	0.125	0.25	0.125	> 4000
Cl.Nc1c(F)c(N2C[C@H]3CCCN[C@H]3C2)c(OC(F)F)c2c1c(=O)c(C(=O)O)cn2C1CC1 [Embodiment 18, 5-Amino-1-cyclopropyl-8-difluoromethoxyl-7-[(1R,6R)-2,8-diazabicyclo[4,3,0]nonane-8-yl]-6-fluoro-1,4-dihydro-4-oxoquinoline-3-carboxylic acid hydrochloride]		0.015	0.015	0.06	0.015	0.015 µg/mL	0.25	0.25	0.03	0.125	0.25	0.06	
COc1c(N2C[C@@H]3CCCN[C@@H]3C2)c(F)cc2c(=O)c(C(=O)O)cn(C3CC3)c12 [Moxifloxacin, moxifloxacin, reference compound]		0.03 (≈ 0.0747 µM)	0.03 (≈ 0.0747 µM)	0.5 (≈ 1.25 µM)	0.03 (≈ 0.0747 µM)	0.03 µg/mL (≈ 0.0747 µM)	0.5 (≈ 1.25 µM)	0.5 (≈ 1.25 µM)	0.125 (≈ 0.311 µM)	0.125 (≈ 0.311 µM)	0.5 (≈ 1.25 µM)	0.06 (≈ 0.149 µM)	
Cl.O=C(O)c1cn(C2CC2)c2c(OC(F)F)c(N3C[C@H]4CCCN[C@H]4C3)c(F)cc2c1=O [Embodiment 14, 1-cyclopropyl-8-difluoromethoxyl-7-[(1R,6R)-2,8-diazabicyclo[4,3,0]nonane-8-yl]-6-fluoro-1,4-dihydro-4-oxoquinoline-3-carboxylic acid hydrochloride]		0.03	0.015	0.25	0.03	0.03 µg/mL	1	0.5	0.06	0.015	0.5	0.03	
Nc1c(F)c(N2C[C@@H]3CCCN[C@@H]3C2)c(OC(F)F)c2c1c(=O)c(C(=O)O)cn2C1CC1 (relative stereo) [Embodiment 21, 5-Amino-1-cyclopropyl-8-difluoromethoxyl-7-(cis-2,8-diazabicyclo[4,3,0]nonane-8-yl)-6-fluoro-1,4-dihydro-4-oxoquinoline-3-carboxylic acid]		< 0.007	< 0.007	0.25 (≈ 0.553 µM)	0.015 (≈ 0.0332 µM)	0.015 µg/mL (≈ 0.0332 µM)	0.25 (≈ 0.553 µM)	0.25 (≈ 0.553 µM)	0.06 (≈ 0.133 µM)	0.03 (≈ 0.0663 µM)	0.25 (≈ 0.553 µM)	0.03 (≈ 0.0663 µM)	
O=C(O)c1cn(C2CC2)c2cc(N3CCNCC3)c(F)cc2c1=O [Ciprofloxacin, ciprofloxacin, reference compound]						0.015 g/mL							
